Tests used:
[1] = system: pooled normal plasma; experiment: Thrombelastography/CLSM in pooled normal plasma (INR 1.0) with or without tPA; assay type: biochemical, human
Description: Pooled normal plasma (George King Bio-Medical, Overland Park, Kans.) anticoagulated with sodium citrate was utilized for experimentation. […] Plasma anticoagulated with sodium citrate procured from anonymous donors treated with warfarin was also obtained from the same vendor.
Plasma sample composition of experiments without tPA addition. The final volume for all subsequently described plasma sample mixtures was 359.6 μL. Sample composition consisted of 326 μL of plasma, 10 μL of tissue factor reagent (0.1% final concentration in dH2O; Instrumentation Laboratory, Lexington, Mass.), 3.6 μL of dimethyl sulfoxide (DMSO) or DMSO with CORM-2 (100 μM final concentration; Sigma-Aldrich, St. Louis, Mo.), and 20 μL of 200 mM CaCl2. Tissue factor stock was kept on ice prior to use and was remade every two hours. […] DMSO was added to dry CORM-2 just prior to placement into the plasma mixture. Six replicate experiments were performed with pooled normal plasma with or without CORM-2 added, whereas plasma obtained from subjects treated with warfarin underwent singlicate experiments with or without CORM-2 exposure.
Plasma sample composition of experiments with tPA addition. As in the series of experiments without tPA addition, the final volume of plasma sample mixtures was 359.6 μL. Sample composition consisted of 316 μL of plasma; 10 μL of tissue factor reagent (0.1% final concentration); 3.6 μL of DMSO without or with CORM-2 (100 μM final concentration); 10 μL of tPA diluted with 10 mM potassium phosphate buffer (pH 7.4) for a final activity of 100 IU/mL; and 20 μL of 200 mM CaCl2. As with tissue factor reagent, tPA stock was kept on ice prior to use and was remade every two hours. Six replicate experiments were performed with pooled normal plasma with or without CORM-2 added, whereas plasma obtained from subjects treated with warfarin underwent singlicate experiments with or without CORM-2 exposure.
Clot Lifespan Model Analyses. Plasma sample mixtures were placed in a disposable cup in a computer-controlled THROMBELASTOGRAPH® hemostasis system (Model 5000, Haemoscope Corp., Niles, Ill.), with addition of CaCl2 as the last step to initiate clotting. In the first series of experiments, no tPA was added and data were collected until clot strength (maximum amplitude) was stable. In the second series of experiments in which tPA was added, data were collected until clot lysis time occurred. […] The nomenclature used to describe these phenomena is as follows: Time to maximum rate of thrombus generation (TMRTG): This is the time interval (sec) observed prior to maximum speed of clot growth. Maximum rate of thrombus generation (MRTG): This is the maximum velocity of clot growth observed (dynes/cm^2/sec). Total Thrombus Generation (TTG): This is the total area under the velocity curve during clot growth (dynes/cm^2), representing the amount of clot strength generated during clot growth. Time to maximum rate of lysis (TMRL): This is the time interval (sec) measured from the time of maximum strength to the time when the velocity of clot disintegration is maximal. Maximum Rate of Lysis (MRL): This is the maximum velocity of clot disintegration observed (—dynes/cm^2/sec). Area of Clot Lysis (ACL): This is the total area under the velocity curve during clot disintegration (−dynes/cm^2), representing the amount of clot strength lost during clot disintegration.

[2] = system: factor IX deficient plasma; experiment: Thrombelastography, factor IX deficient plasma; assay type: biochemical, human; conditions: 100 mmol CORM-2 vs control; FIX deficient plasma, 5 individuals
Description: Plasma deficient (<1% normal activity) in factor VIII (FVIII; 11 individuals), factor IX (FIX; 5 individuals), or factor VII (FVII; 4 individuals) was obtained from anonymous donors (George King Bio-Medical, Overland Park, Kans.) and was anticoagulated with sodium citrate. The final volume for all subsequently described plasma sample mixtures was […]. Sample composition consisted of […] of plasma, […] of tissue factor (0.1% final concentration in 0.9% NaCl; Diagnostica Stago, Asnieres, France), 3.6 mL of dimethyl sulfoxide (DMSO) or DMSO with CORM-2 ([…]; Sigma-Aldrich, St. Louis, Mo.), and 20 mL of […] CaCl2. […] (Motterlini et al. 2005). While CORM-2 decays slowly in DMSO, DMSO was added to the dry compound just prior to placement into the plasma mixture.
Plasma sample mixtures were placed in a disposable cup in a computer-controlled THROMBELASTOGRAPH® hemostasis system (Model 5000; Haemoscope Corp., Niles, Ill.), with addition of CaCl2 as the last step to initiate clotting. Data were collected until clot strength stabilized (maximum amplitude).
Statistical analyses. […] A paired student's t-test was used to analyze the effects of CORM-2 exposure in FVIII deficient individuals. The results of the FIX and FVII deficient groups were presented but not statistically analyzed secondary to the small number of individuals in each cohort. […] Statistical analyses and graphical representation of the data were generated with commercially available software (SigmaPlot 11.0; Systat Software Inc., San Jose, Calif.; CorelDRAW 12.0; Corel Corp., Ottawa, Ontario, Canada). A P value of less than 0.05 was considered significant.

[3] = no tPA, 100 μM CORM-2, mean ± SD, n=6
[4] = tPA 100 U/ml, 100 μM CORM-2, mean ± SD, n=6
[5] = tPA 100 U/ml, 100 μM vs 0 μM CORM-2

[C-]#[O+].[C-]#[O+].[C-]#[O+].[C-]#[O+].[C-]#[O+].[C-]#[O+].[Cl][Ru][Cl].[Cl][Ru][Cl] [CORM-2, tricarbonyldichlororuthenium (II) dimer]
MRTG (maximum rate of thrombus generation) [1, 3]: 15.0 ± 2.4 dynes/cm^2/sec
TMRTG (time to maximum rate of thrombus generation) [1, 3]: 2.26 ± 0.03 min
TTG (total thrombus generation) [1, 3]: 285 ± 38 dynes/cm^2
Percent Change of MRTG ([1]; no tPA, 100 μM vs 0 μM CORM-2): 102%
Percent Change of TMRTG ([1]; no tPA, 100 μM vs 0 μM CORM-2): −5%
Percent Change of TTG ([1]; no tPA, 100 μM vs 0 μM CORM-2): 70%
CGT (clot growth time) [1, 4]: 7.00 ± 0.94 min
CLS (clot lifespan) [1, 4]: 39.07 ± 2.82 min
CLT (clot lysis time) [1, 4]: 32.07 ± 3.15 min
MRL (maximum rate of lysis) [1, 4]: −2.4 ± 0.5 −dynes/cm^2/sec
MRTG (maximum rate of thrombus generation) [1, 4]: 15.2 ± 1.3 dynes/cm^2/sec
TMRL (time to maximum rate of lysis) [1, 4]: 22.92 ± 1.93 min
TMRTG (time to maximum rate of thrombus generation) [1, 4]: 2.14 ± 0.05 min
TTG (total thrombus generation) [1, 4]: 284 ± 27 dynes/cm^2
Percent Change of CGT [1, 5]: 58%
Percent Change of CLS [1, 5]: 91%
Percent Change of CLT [1, 5]: 100%
Percent Change of MRL [1, 5]: 68%
Percent Change of MRTG [1, 5]: 97%
Percent Change of TMRL [1, 5]: 103%
Percent Change of TMRTG [1, 5]: −2%
Percent Change of TTG [1, 5]: 106%
effect on MRTG (speed of clot formation) [2]: four of five individuals had an increase in the speed of clot formation
effect on TMRTG [2]: decreased the TMRTG value of all five individual plasma samples tested
effect on TTG [2]: All individual plasma samples demonstrated an increase in TTG

Reference: patent publication US8697747B2, “Enhancing coagulation or reducing fibrinolysis” (THe UAB Research Foundation, priority 2009, dated 2014)
